Data from patent publication US20200333324A1, “METHOD OF PREDICTING CLINICAL OUTCOME OF ANTICANCER AGENTS” (MITRA RXDX, INC., priority 2017, published 2020).

How the values were obtained:
Format in all cases: cell-based, human
HNSCC tumor tissue [1] = experiment: FACS analysis for CD3 and CD8 (CD8+ T cell infiltration) in tumor microenvironment platform; conditions: vs IgG control
Procedure: The effect of Pembrolizumab and Nivolumab on CD8^+ T cell tumor infiltration was then evaluated. Tumor sections from the same patient cultured for 72 hours in the tumor microenvironment platform were treated with Pembrolizumab, Nivolumab, or IgG as control and stained for H&E, Ki67, Caspase 3, and CD8 at day 3 in culture (T3). Baseline staining was determined at TO. […] To further elucidate the effects of the anti-PD-1 antibodies, FACS analysis was performed on tumor tissue from patient 2941 and patient 2942 treated with either Pembrolizumab, Nivolumab, or IgG control. […] By contrast, there was no effect of either Pembrolizumab or Nivolumab on CD8^+ T cell infiltration for patient 2942, further highlighting the differential response between individuals to PD-1 blockade. CD8^+ T cell infiltration was evaluated in the tumor microenvironment platform with tumor tissue from the same patient, and comparisons for control vs Nivo, control vs Pembro, Nivo vs Pembro, and control vs Nivo vs Pembro for multiple patients are shown in FIG. 6 (each line represents results from the tumor microenvironment platform cultured with tumor tissue from a single individual).

HNSCC tumor tissue [2] = experiment: Granzyme B and Perforin secretion assays, HNSCC tumor sections in tumor microenvironment platform; conditions: 48 hours
Procedure: FIGS. 9A and 9B show quantification of results for Granzyme B and Perforin secretion assays for HNSCC tumor tissue cultured in the tumor microenvironment platform treated with Pembrolizumab, Nivolumab, or IgG control for 24 or 48 hours.
HNSCC tumor sections from the same patient cultured for 24 or 48 hours in the tumor microenvironment platform with Pembrolizumab, Nivolumab, or IgG as control were assayed for Granzyme B and Perforin secretion. Results are shown in FIG. 9A for the tumor microenvironment platform with tumor tissue from a predicted responder and FIG. 9B for the tumor microenvironment platform with tumor tissue from a predicted non-responder. After treatment with Pembrolizumab for 48 hours, there was an increase in both Granzyme B and Perforin secretion in the tumor microenvironment platform with tissue from the predicted responder compared to treatment with the control IgG. By contrast, at 48 hours in the tumor microenvironment platform with tissue from the predicted non-responder there was no increase in Granzyme B or Perforin secretion for treatment with either Pembrolizumab or Nivolumab.

PBNCs = experiment: FACS analysis for CD25, CD127 and FOXP3 expression, PBNCs
Procedure: (§1) The effect of treatment with Nivolumab and Pembrolizumab on CD25, CD127, and FOXP3 expression was then evaluated. Tumor sections or PBNCs from the same patient cultured for 3 days in the tumor microenvironment platform were treated with Pembrolizumab, Nivolumab, or IgG control for one day followed by FACS analysis for expression of CD25, CD127, and FOXP3.

Tumor sections = experiment: FACS analysis for CD25, CD127 and FOXP3 expression, tumor sections; conditions: for functional Treg cells (CD25, CD127, FOXP3 FACS): platform containing tumor tissue
Procedure: as §1

[3] = predicted responder, compared to control IgG

| Substance | CD8^+ T cell infiltration (FACS) (HNSCC tumor tissue [1]; patient 2941) | CD8^+ T cell infiltration (FACS) (HNSCC tumor tissue [1]; patient 2942) | Granzyme B secretion (HNSCC tumor tissue [2]; predicted non-responder) | Perforin secretion (HNSCC tumor tissue [2]; predicted non-responder) | CD25^+/FOXP3^− PBMCs (% total cells) (PBNCs; Non-Responder, control 3.67) | CD25^+/CD127^+ PBMCs (% total cells) (PBNCs; Non-Responder, control 14.6) | CD25^+/CD127^− PBMCs (% total cells) (PBNCs; Non-Responder, control 15.1) | CD25^−/FOXP3^− PBMCs (% total cells) (PBNCs; Non-Responder, control 18.2) | CD25^+/FOXP3^+ PBMCs (% total cells) (PBNCs; Non-Responder, control 22.1) | CD25^−/CD127^+ PBMCs (% total cells) (PBNCs; Non-Responder, control 26.2) | CD25^−/CD127^− PBMCs (% total cells) (PBNCs; Non-Responder, control 44.1) | CD25^− FOXP3^+ PBMCs (% total cells) (PBNCs; Non-Responder, control 56.0) | CD25^+/FOXP3^− PBMCs (% total cells) (PBNCs; Responder, control 3.04) | CD25^+/CD127^− PBMCs (% total cells) (PBNCs; Responder, control 11.7) | CD25^+/CD127^+ PBMCs (% total cells) (PBNCs; Responder, control 16.8) | CD25^+/FOXP3^+ PBMCs (% total cells) (PBNCs; Responder, control 21.7) | CD25^−/FOXP3^− PBMCs (% total cells) (PBNCs; Responder, control 23.2) | CD25^−/CD127^+ PBMCs (% total cells) (PBNCs; Responder, control 24.8) | CD25^−/CD127^− PBMCs (% total cells) (PBNCs; Responder, control 46.6) | CD25^− FOXP3^+ PBMCs (% total cells) (PBNCs; Responder, control 52.1) | further results |
| --- | --- | --- | --- | --- | --- | --- | --- | --- | --- | --- | --- | --- | --- | --- | --- | --- | --- | --- | --- | --- | --- |
| Pembrolizumab | but not Pembrolizumab | no effect | no increase | no increase | 2.8 | 25.6 | 7.71 | 10.9 | 29.1 | 45.3 | 21.4 | 57.2 | 3.94 | 7.77 | 20.4 | 22.1 | 20.0 | 46.4 | 25.4 | 54.0 | Granzyme B secretion (HNSCC tumor tissue [2]; [3]): increase; Perforin secretion (HNSCC tumor tissue [2]; [3]): increase; CD25^+/FOXP3^− Tumor (% total cells) (Tumor sections; Non-Responder, control 6.52): 5.03 % total cells; CD25^+/CD127^+ Tumor (% total cells) (Tumor sections; Non-Responder, control 19.6): 17.8 % total cells; CD25^−/CD127^− Tumor (% total cells) (Tumor sections; Non-Responder, control 22.1): 24.9 % total cells; CD25^−/FOXP3^− Tumor (% total cells) (Tumor sections; Non-Responder, control 23.6): 10.7 % total cells; CD25^+/CD127^− Tumor (% total cells) (Tumor sections; Non-Responder, control 25.4): 24.3 % total cells; CD25^−/CD127^+ Tumor (% total cells) (Tumor sections; Non-Responder, control 33.0): 32.9 % total cells; CD25^+/FOXP3^+ Tumor (% total cells) (Tumor sections; Non-Responder, control 34.4): 35.8 % total cells; CD25^− FOXP3^+ Tumor (% total cells) (Tumor sections; Non-Responder, control 35.5): 48.4 % total cells; CD25^−/CD127^− Tumor (% total cells) (Tumor sections; Responder, control 12.2): 18.4 % total cells; CD25^− FOXP3^+ Tumor (% total cells) (Tumor sections; Responder, control 18.9): 42.5 % total cells; CD25^−/FOXP3^− Tumor (% total cells) (Tumor sections; Responder, control 20.3): 6.67 % total cells; CD25^+/CD127^− Tumor (% total cells) (Tumor sections; Responder, control 23.0): 17.7 % total cells; CD25^−/CD127^+ Tumor (% total cells) (Tumor sections; Responder, control 24.3): 31.2 % total cells; CD25^+/FOXP3^− Tumor (% total cells) (Tumor sections; Responder, control 25.7): 5.83 % total cells; CD25^+/FOXP3^+ Tumor (% total cells) (Tumor sections; Responder, control 35.1): 45.0 % total cells; CD25^+/CD127^+ Tumor (% total cells) (Tumor sections; Responder, control 40.5): 32.6 % total cells; functional Treg cells (CD25, CD127, FOXP3 FACS) (Tumor sections): patient sample-dependent functional Treg cell depression |
| Nivolumab | increase | no effect | no increase | no increase | 1.40 | 25.1 | 8.22 | 7.90 | 29.0 | 44.4 | 22.3 | 61.7 | 8.91 | 6.53 | 30.4 | 24.0 | 29.8 | 44.2 | 18.9 | 37.3 | CD25^+/FOXP3^− Tumor (% total cells) (Tumor sections; Non-Responder, control 6.52): 6.45 % total cells; CD25^+/CD127^+ Tumor (% total cells) (Tumor sections; Non-Responder, control 19.6): 16.1 % total cells; CD25^−/CD127^− Tumor (% total cells) (Tumor sections; Non-Responder, control 22.1): 21.7 % total cells; CD25^−/FOXP3^− Tumor (% total cells) (Tumor sections; Non-Responder, control 23.6): 17.5 % total cells; CD25^+/CD127^− Tumor (% total cells) (Tumor sections; Non-Responder, control 25.4): 22.1 % total cells; CD25^−/CD127^+ Tumor (% total cells) (Tumor sections; Non-Responder, control 33.0): 40.1 % total cells; CD25^+/FOXP3^+ Tumor (% total cells) (Tumor sections; Non-Responder, control 34.4): 29.5 % total cells; CD25^− FOXP3^+ Tumor (% total cells) (Tumor sections; Non-Responder, control 35.5): 46.5 % total cells; CD25^−/CD127^− Tumor (% total cells) (Tumor sections; Responder, control 12.2): 15.6 % total cells; CD25^− FOXP3^+ Tumor (% total cells) (Tumor sections; Responder, control 18.9): 45.7 % total cells; CD25^−/FOXP3^− Tumor (% total cells) (Tumor sections; Responder, control 20.3): 4.62 % total cells; CD25^+/CD127^− Tumor (% total cells) (Tumor sections; Responder, control 23.0): 25.4 % total cells; CD25^−/CD127^+ Tumor (% total cells) (Tumor sections; Responder, control 24.3): 31.8 % total cells; CD25^+/FOXP3^− Tumor (% total cells) (Tumor sections; Responder, control 25.7): 5.20 % total cells; CD25^+/FOXP3^+ Tumor (% total cells) (Tumor sections; Responder, control 35.1): 44.5 % total cells; CD25^+/CD127^+ Tumor (% total cells) (Tumor sections; Responder, control 40.5): 27.2 % total cells; functional Treg cells (CD25, CD127, FOXP3 FACS) (Tumor sections): patient sample-dependent functional Treg cell depression |
